Results: patent US20240408216A1, “PROTEIN INHIBITOR OR DEGRADING AGENT, PHARMACEUTICAL COMPOSITION CONTAINING SAME AND PHARMACEUTICAL USE” (JING MEDICINE TECHNOLOGY (SHANGHAI) LTD., priority 2021, published 2024)
Where two headings read alike, the source gives them in different places.

Key:
[1] = tested on: human EGFR-DTC; assay: EGFR protein abundance assay (Western blotting), EGFR-DTC; assay type: cell-based; settings: Ba/F3 cells expressing human EGFR-DTC, 24 h, Western blot
Method: (§1) Mouse Ba/F3 cells stably expressing human EGFR-DTC, EGFR-LTC, or EGFR-DC were transferred to Petri dishes with RPMI-1640 medium (Gibco, Product No. 11875093) containing 10% fetal bovine serum (FBS, Biological Industries, Product No. 04-001-1A) and 0.1% penicillin/streptomycin (P/S) and incubated in an aseptic incubator at 37° C., 95% relative humidity, and 5% CO2. Cells at the logarithmic growth phase were taken and seeded at a density of 50000 cells/well in 12-well plates (Corning, Product No. 3513) containing 1 mL of medium per well. After 24 h, the compounds disclosed herein with different concentrations were added to the wells at a final DMSO concentration of 0.1%. After 24 h, cells were lysed in SDS lysis buffer (1.45 g of SDS, 0.2 g of Tris base, 6 mL of glycerol, 20 mg of bromophenol blue, 310 mg DTT; brought to 40 mL with d2H2O), and the EGFR levels were detected and analyzed by Western Blotting (immunoblotting) using standard molecular biological techniques. Cell lysates were boiled at 95° C. for 8 min, mixed and centrifuged. The total cell proteins in the lysates were subjected to SDS-PAGE (GenScript, Product No. M00654), transferred to NC membranes (GE, Product No. 1060002) by blotting, incubated in a blocking buffer (TAKARA, Product No. T7131A) at room temperature for 60 min, and co-incubated overnight at 4° C. with the following primary antibodies: anti-EGFR (#4267S, 1:1000), anti-phoso-EGFR (#3777S, 1:1000), anti-GAPDH (#5174S, 1:10000), anti-Actin (#5125 S, 1:10000) (all purchased from Cell Signaling Technology). The samples were washed three times with TBST at room temperature, each for 10 min, and then incubated for 60 minutes in a blocking buffer containing a secondary antibody (#7074S, 1:10000, purchased from Cell Signaling Technology) at room temperature. The samples were washed three times with TBST at room temperature, each for 10 min. Chemiluminescent substrates were added, and an Azure c300 system was used for imaging.

[2] = biological target: T1, human EGFR-LTC (Homo sapiens, UniProt P00533, C797S/L858R/T790M); assay: EGFR protein abundance assay (Western blotting), EGFR-LTC; assay type: cell-based; settings: 24 h, Western blot; for DC50 / EGFR-LTC Dmax: Ba/F3 cells expressing human EGFR-LTC; for Dmax: BaF3, Ba/F3 cells expressing human EGFR-LTC
T1 construct: expressed in transfected cells
T1 sequence (P00533 25-1210 T790M/C797S/L858R): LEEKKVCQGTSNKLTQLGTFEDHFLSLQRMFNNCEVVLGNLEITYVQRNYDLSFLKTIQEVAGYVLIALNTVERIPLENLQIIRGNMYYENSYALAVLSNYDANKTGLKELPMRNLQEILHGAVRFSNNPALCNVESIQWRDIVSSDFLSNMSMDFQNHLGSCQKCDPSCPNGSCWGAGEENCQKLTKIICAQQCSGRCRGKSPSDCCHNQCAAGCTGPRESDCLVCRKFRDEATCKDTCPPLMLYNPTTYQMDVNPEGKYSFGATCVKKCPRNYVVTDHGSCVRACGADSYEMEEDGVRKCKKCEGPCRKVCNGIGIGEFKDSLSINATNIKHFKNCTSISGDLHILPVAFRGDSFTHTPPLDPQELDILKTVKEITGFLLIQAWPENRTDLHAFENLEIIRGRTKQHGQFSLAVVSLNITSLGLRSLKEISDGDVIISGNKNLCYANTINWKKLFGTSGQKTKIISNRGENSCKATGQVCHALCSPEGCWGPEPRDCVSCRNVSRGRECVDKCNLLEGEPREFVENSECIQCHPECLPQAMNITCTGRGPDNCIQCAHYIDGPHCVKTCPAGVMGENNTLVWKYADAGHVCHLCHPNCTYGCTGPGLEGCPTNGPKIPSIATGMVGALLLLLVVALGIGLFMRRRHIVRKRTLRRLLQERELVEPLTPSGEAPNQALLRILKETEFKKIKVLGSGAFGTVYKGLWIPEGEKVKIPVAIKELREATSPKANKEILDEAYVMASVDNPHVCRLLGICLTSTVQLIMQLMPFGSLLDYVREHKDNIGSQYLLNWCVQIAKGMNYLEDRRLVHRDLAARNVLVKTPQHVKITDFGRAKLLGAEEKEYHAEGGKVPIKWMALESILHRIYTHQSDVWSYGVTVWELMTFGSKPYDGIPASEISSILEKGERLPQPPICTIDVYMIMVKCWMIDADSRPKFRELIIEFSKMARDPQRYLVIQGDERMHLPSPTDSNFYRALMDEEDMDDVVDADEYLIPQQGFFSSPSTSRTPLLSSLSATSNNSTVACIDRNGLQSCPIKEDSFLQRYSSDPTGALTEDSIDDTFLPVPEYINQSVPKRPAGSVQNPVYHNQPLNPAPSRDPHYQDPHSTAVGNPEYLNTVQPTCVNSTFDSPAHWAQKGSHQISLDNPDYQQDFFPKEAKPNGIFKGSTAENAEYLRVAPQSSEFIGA
Method: as §1

[3] = tested on: BaF3 patent; assay: Cell proliferation IC50 assay (Cell Titer GLO), BaF3 parental cells; assay type: cell-based; settings: Mus musculus, Table 5, 10 ng/ml mIL3, 72 h
Method: (§2) IC50 of compounds in the present invention was determined by Cell Titer GLO reagent from Promega. The procedures are as follows:
(§3) Tumor cells were cultured in specified medium in an incubator at 37° C. and 5% CO2. The cells were passaged periodically. Cells at the logarithmic growth phase were collected for plating at a density of 2000-4000 cells/well. The next day, the compounds of the present invention were serially diluted and added to the cells, with DMSO being the negative control and the culture media without cells being the blank control. The plate was incubated in the incubator for 72 h. The cell viability assay was performed by adding the detection reagents to the cell culture media according to Cell Titer GLO reagent instructions and detecting luminescent signals on an EnVision microplate reader (PerkinElmer).
(§4) Inhibition of cell growth by the compounds of the present invention was plotted by Prism Graphpad software for statistically calculating the IC50 of the compound of the present invention.

[4] = tested on: LT; assay: Cell proliferation IC50 assay (Cell Titer GLO), LT cells; assay type: cell-based; settings: Mus musculus; Table 7; LT cells (BaF3 with EGFR mutant), 72 h
Method: as §2, §3, §4

[5] = tested on: DT; assay: Cell proliferation IC50 assay (Cell Titer GLO), DT cells; assay type: cell-based; settings: Mus musculus; Table 7; DT cells (BaF3 with EGFR mutant), 72 h
Method: as §2, §3, §4

[6] = biological target: BaF3 (EGFR Del19) (Homo sapiens, UniProt P00533, cells depend on it, form not given); assay: Cell proliferation IC50 assay (Cell Titer GLO), BaF3 D cells; assay type: cell-based, mouse; settings: Table 7, 72 h
BaF3 (EGFR Del19), sequence (P00533 with tags, fused parts or gaps DEL746-750): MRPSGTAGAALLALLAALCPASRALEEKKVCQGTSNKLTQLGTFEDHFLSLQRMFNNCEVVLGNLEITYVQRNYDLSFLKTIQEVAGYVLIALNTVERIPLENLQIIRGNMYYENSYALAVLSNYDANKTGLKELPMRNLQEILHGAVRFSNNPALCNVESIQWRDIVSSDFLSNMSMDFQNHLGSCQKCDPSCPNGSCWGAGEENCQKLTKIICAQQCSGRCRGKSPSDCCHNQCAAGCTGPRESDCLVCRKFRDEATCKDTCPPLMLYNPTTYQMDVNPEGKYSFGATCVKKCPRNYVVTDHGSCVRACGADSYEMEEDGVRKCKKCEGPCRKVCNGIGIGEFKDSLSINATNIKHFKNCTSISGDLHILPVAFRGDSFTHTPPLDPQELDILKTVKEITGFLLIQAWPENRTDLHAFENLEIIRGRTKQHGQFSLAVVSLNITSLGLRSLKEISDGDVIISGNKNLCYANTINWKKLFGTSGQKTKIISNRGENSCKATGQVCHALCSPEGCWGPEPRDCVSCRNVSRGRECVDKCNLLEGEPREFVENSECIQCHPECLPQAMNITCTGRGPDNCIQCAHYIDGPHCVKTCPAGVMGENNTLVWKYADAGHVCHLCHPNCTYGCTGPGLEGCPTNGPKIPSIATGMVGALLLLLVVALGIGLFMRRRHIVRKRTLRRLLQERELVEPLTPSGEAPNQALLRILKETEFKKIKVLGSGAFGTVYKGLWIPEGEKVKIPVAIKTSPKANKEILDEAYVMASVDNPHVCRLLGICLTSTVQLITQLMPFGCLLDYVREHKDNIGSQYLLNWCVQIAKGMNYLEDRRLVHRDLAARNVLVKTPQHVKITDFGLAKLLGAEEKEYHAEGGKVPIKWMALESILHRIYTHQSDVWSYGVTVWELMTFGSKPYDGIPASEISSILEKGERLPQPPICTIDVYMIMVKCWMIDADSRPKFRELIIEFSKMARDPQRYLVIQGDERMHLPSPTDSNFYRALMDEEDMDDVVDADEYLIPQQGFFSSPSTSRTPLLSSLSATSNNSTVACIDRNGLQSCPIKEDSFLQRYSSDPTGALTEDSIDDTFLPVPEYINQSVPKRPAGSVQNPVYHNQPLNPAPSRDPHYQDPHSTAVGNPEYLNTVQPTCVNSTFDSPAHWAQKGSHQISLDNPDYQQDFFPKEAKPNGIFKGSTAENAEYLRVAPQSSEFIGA
Method: as §2, §3, §4

[7] = tested on: A431; assay: Cell proliferation IC50 assay (Cell Titer GLO), A431 cells; assay type: cell-based; settings: Homo sapiens, A-431, A431, 72 h, read-out: A431 IC50
Procedure, shortened: (§5)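 Each cell line, plated at 2000-4000 cells/well, received serially diluted compound for 72 h (37° C, 5% CO2) before luminescent ATP-based viability detection. IC50 values were derived from growth inhibition relative to DMSO-treated and cell-free blank wells.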

[8] = tested on: BaF3 (EGFR Del19/T790M/C797S); assay: Cell proliferation IC50 assay (Cell Titer GLO), BaF3 DTC cells; assay type: cell-based; settings: Mus musculus, Ba/F3 EGFR-Del19/T790M/C797S
Procedure, shortened: as §5

[9] = tested on: BaF3 (EGFR WT); assay: Cell proliferation IC50 assay (Cell Titer GLO), BaF3 WT cells; assay type: cell-based; settings: Mus musculus, Ba/F3 EGFR, 72 h
Procedure, shortened: as §5

[10] = biological target: BaF3 (EGFR L858R) (Homo sapiens, UniProt P00533, L858R, cells depend on it); assay: Cell proliferation IC50 assay (Cell Titer GLO), BaF3 L cells; assay type: cell-based, mouse; settings: Table 7, 72 h
BaF3 (EGFR L858R), sequence (P00533 whole entry L858R): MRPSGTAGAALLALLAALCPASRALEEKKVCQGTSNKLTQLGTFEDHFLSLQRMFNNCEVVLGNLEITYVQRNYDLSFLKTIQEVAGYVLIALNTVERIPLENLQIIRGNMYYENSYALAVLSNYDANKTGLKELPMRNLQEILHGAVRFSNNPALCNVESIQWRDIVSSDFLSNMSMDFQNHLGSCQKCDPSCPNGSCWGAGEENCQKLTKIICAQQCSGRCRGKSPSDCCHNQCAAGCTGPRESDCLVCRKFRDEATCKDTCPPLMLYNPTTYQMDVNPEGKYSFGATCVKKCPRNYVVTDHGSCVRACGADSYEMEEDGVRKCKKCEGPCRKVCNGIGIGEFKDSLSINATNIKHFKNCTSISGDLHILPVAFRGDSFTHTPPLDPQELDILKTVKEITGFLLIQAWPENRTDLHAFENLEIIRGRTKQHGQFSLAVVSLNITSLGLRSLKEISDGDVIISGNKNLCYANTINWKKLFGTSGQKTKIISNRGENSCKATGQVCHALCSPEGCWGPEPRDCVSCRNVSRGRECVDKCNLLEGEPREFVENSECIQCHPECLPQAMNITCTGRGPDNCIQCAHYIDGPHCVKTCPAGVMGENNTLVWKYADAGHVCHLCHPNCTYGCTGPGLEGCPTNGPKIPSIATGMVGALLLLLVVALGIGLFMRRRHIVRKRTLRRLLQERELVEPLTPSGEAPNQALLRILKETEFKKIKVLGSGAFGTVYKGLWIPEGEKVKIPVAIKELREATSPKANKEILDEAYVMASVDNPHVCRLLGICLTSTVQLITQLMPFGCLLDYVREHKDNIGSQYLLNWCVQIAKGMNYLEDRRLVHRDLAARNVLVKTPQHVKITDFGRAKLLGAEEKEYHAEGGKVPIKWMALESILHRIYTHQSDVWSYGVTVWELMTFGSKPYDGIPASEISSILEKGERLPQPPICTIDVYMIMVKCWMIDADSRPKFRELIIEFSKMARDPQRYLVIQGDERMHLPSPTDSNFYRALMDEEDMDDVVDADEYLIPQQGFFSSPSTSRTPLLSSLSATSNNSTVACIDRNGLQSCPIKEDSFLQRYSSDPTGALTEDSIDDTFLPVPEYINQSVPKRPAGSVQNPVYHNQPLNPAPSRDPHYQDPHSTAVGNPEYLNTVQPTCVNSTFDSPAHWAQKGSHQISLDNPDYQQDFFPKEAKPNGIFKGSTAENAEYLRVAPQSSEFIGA
Method: as §2, §3, §4

[11] = biological target: T2, BaF3 (EGFR Del19/C797S) (Homo sapiens, UniProt P00533, C797S, cells depend on it, form not given); assay: Cell proliferation IC50 assay (Cell Titer GLO), BaF3 DC cells; assay type: cell-based, mouse; settings: Table 7, 72 h
T2 construct: BaF3 (EGFR Del19/C797S)|DC|RPMI1640 + 10% FBS
T2 sequence (P00533 with tags, fused parts or gaps DEL746-750/C797S, form open): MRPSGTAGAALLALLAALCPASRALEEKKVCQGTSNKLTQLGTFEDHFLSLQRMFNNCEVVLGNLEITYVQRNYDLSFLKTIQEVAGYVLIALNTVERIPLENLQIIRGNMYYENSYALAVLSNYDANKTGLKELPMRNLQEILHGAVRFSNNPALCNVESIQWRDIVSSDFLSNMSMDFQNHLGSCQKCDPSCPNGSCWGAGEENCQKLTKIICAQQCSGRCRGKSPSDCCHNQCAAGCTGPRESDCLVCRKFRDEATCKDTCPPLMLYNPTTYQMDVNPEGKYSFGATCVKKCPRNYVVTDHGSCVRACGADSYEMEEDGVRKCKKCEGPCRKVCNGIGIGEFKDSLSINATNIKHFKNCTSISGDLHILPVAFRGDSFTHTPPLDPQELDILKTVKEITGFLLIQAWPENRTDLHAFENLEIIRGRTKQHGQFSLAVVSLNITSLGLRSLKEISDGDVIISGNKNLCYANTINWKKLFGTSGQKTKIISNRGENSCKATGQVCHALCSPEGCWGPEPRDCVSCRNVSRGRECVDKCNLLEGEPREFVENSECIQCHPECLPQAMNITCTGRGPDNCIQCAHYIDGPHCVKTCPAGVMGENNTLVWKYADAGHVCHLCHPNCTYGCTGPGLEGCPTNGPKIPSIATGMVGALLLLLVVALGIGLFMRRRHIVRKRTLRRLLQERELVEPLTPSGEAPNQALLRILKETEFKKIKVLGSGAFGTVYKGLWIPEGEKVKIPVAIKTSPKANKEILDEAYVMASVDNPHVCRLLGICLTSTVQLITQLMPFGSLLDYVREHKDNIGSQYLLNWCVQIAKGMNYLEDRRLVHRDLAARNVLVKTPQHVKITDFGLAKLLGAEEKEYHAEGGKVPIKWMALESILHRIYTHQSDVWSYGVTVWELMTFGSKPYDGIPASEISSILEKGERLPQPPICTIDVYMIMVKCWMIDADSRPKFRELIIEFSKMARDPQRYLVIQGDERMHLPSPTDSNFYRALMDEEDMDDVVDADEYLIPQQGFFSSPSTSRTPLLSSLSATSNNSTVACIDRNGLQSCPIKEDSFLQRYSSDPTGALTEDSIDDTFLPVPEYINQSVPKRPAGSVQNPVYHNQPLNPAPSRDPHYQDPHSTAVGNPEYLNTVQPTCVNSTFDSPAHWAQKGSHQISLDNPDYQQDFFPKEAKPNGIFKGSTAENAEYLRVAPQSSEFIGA
Procedure, shortened: as §5

[12] = tested on: BaF3 (EGFR L858R/T790M/C797S); assay: Cell proliferation IC50 assay (Cell Titer GLO), BaF3 LTC cells; assay type: cell-based; settings: Mus musculus, Ba/F3 EGFR
Procedure, shortened: as §5

[13] = biological target: BaF3 (EGFR L858R/C797S) (Homo sapiens, UniProt P00533, C797S/L858R, cells depend on it); assay: Cell proliferation IC50 assay (Cell Titer GLO), BaF3 LC cells; assay type: cell-based, mouse; settings: Table 7, 72 h
Method: as §2, §3, §4

[14] = tested on: human EGFR-DC; assay: EGFR protein abundance assay (Western blotting), EGFR-DC; assay type: cell-based; settings: Ba/F3 cells expressing human EGFR-DC, 24 h, Western blot
Method: as §1

| SMILES | DC50 [1] [nM] | EGFR-DTC Dmax [1] [%] | DC50 [2] [nM] | IC50 [3] [nM] | IC50 [4] [nM] | IC50 [5] [nM] | GI50 [6] [nM] | IC50 ([7]; Table 5) [nM] | IC50 ([8]; Table 5, 72 h) [nM] | IC50 ([9]; Table 5, 10 ng/ml EGF) [nM] | GI50 [10] [nM] | IC50 [11] [nM] | IC50 ([12]; Table 5, 72 h) [nM] | GI50 [13] [nM] | also measured |
| --- | --- | --- | --- | --- | --- | --- | --- | --- | --- | --- | --- | --- | --- | --- | --- |
| CCc1cc(Nc2ncc(Cl)c(Nc3ccccc3P(C)(C)=O)n2)c(OC)cc1N1CCC(N2CCN(CCC#Cc3cccc4c3CN(C3CCC(=O)NC3=O)C4=O)CC2)CC1 (single isomer, unassigned) [Example E5] | 9.31 | 86 | < 1 |  |  |  |  |  |  |  |  |  |  |  | EGFR-LTC Dmax [2]: 93% |
| CCc1cc(Nc2ncc(Cl)c(Nc3ccccc3P(C)(C)=O)n2)c(OC)cc1N1CCC(N2CCN(CCC#Cc3cccc4c3CN(C3CCC(=O)NC3=O)C4=O)CC2)CC1 (single isomer, unassigned) [Example E6] | 3.37 | 70 | 10.1 |  |  |  |  |  |  |  |  |  |  |  | EGFR-LTC Dmax [2]: 89% |
| COc1cc(N2CCC(N3CCN(CCC#Cc4cccc5c4CN(C4CCC(=O)NC4=O)C5=O)CC3)CC2)ccc1Nc1ncc(Cl)c(Nc2ccccc2P(C)(C)=O)n1 (centres unmarked) [Example C-2, reference compound] |  |  |  | 73.8 | 20.9 | 13.3 |  |  |  |  |  |  |  |  |  |
| COc1cc(N2CCC3(CCN(CCCC#Cc4cccc5c4CN(C4CCC(=O)NC4=O)C5=O)CC3)CC2)c(C)cc1Nc1ncc(Br)c(Nc2ccc3ccccc3c2P(C)(C)=O)n1 (centres unmarked) [Example E12] |  |  |  | > 4000 | 36 | 24.8 | 7.8 | > 4000 | 18.3 | > 4000 | 37.8 | 16.2 | 111 | 106 |  |
| COc1cc(N2CCC(N3CCN(CCC#Cc4cccc5c4CN(C4CCC(=O)NC4=O)C5=O)CC3)CC2)c(C2CC2)cc1Nc1ncc(Cl)c(Nc2ccccc2P(C)(C)=O)n1 (centres unmarked) [Example E13] |  |  |  | > 4000 | 16.5 | 7.7 | 6.1 | > 4000 | 19.6 | > 4000 | 23.5 | 20.4 | 66.5 | 128 |  |
| CCc1cc(Nc2ncc(Cl)c(Nc3ccccc3P(C)(C)=O)n2)c(OC)cc1N1CCC2(CCN(CCCC#Cc3cccc4c3CN(C3CCC(=O)NC3=O)C4=O)CC2)CC1 (centres unmarked) [Example E15] |  |  |  | > 4000 | 20.7 | 13.7 | 5.3 | > 4000 | 10.6 | > 4000 | 20.1 | 9.1 | 120 | 54.4 |  |
| CCc1cc(Nc2ncc(Cl)c(Nc3ccccc3P(C)(C)=O)n2)c(OC)cc1N1CCC(N2CCN(CCCCCc3ccc4c(c3F)CN(C3CCC(=O)NC3=O)C4=O)CC2)CC1 (centres unmarked) [Example E20] |  |  |  | > 4000 | 10 | 7 | 1.7 | 1270 | 5.6 | > 4000 | 5.2 | 2.7 | 54.3 | 19.4 |  |
| CCc1cc(Nc2ncc(Br)c(Nc3ccc4c(c3P(C)(C)=O)OCCO4)n2)c(OC)cc1N1CCC2(CCN(CCCC#Cc3cccc4c3CN(C3CCC(=O)NC3=O)C4=O)CC2)CC1 (centres unmarked) [Example E28] |  |  |  | 695 |  |  |  | 1390 | 11.2 | 955 |  |  | 57.9 |  |  |
| CCc1cc(Nc2ncc(Cl)c(Nc3ccccc3P(C)(C)=O)n2)c(OC)cc1N1CCC(N2CC3(CCC(Oc4cccc5c4CN(C4CCC(=O)NC4=O)C5=O)CC3)C2)CC1 (centres unmarked) [Example E29] |  |  |  | 1370 |  |  |  | 1020 | 14 | 1000 |  |  | 20.9 |  |  |
| CCc1cc(Nc2ncc(Cl)c(Nc3ccccc3P(C)(C)=O)n2)c(OC)cc1N1CCC(N2CCN(CCCCOc3cccc4c3CN(C3CCC(=O)NC3=O)C4=O)CC2)CC1 (centres unmarked) [Example E30] |  |  |  | 410 |  |  |  | 1020 | 1.6 | 636 |  |  | 11.9 |  |  |
| CCc1cc(Nc2ncc(Cl)c(Nc3ccccc3P(C)(C)=O)n2)c(OC)cc1N1CCC(N2CCN(CCOc3cccc4c3CN(C3CCC(=O)NC3=O)C4=O)CC2)CC1 (centres unmarked) [Example E95] | 3.02 | 91 | 2.13 |  | 3.5 | 4 | 0.8 |  |  |  | 6.6 | 1.3 |  | 16.9 | IC50 ([7]; Table 6): 1730 nM; IC50 ([8]; Table 6, 72 h): 5.37 nM; Dmax [2]: 94%; IC50 ([9]; Table 6, 10 ng/ml EGF): ≥ 1820 nM; IC50 ([12]; Table 6, 72 h): 48.4 nM; DC50 [14]: 10.1 nM; EGFR-DC Dmax [14]: 98% |
| CCc1cc(Nc2ncc(Cl)c(Nc3ccccc3P(C)(C)=O)n2)c(OC)cc1N1CCC(N2Cc3ccc(Oc4cccc5c4CN(C4CCC(=O)NC4=O)C5=O)cc3C2)CC1 (centres unmarked) [Example E120] | 7.17 | 86 | 13.1 |  | 9.3 | 7.8 | 1.8 |  |  |  | 16.6 | 3.2 |  | 33.9 | IC50 ([7]; Table 6): ≥ 1560 nM; IC50 ([8]; Table 6, 72 h): 14.7 nM; Dmax [2]: 85%; IC50 ([9]; Table 6, 10 ng/ml EGF): ≥ 2160 nM; IC50 ([12]; Table 6, 72 h): 115 nM |
| CCc1cc(Nc2ncc(-c3cnn(C)c3)c(Nc3ccccc3P(C)(C)=O)n2)c(OC)cc1N1CCC(N2CCN(CCOc3cccc4c3CN(C3CCC(=O)NC3=O)C4=O)CC2)CC1 (centres unmarked) [Example E158] |  |  |  |  | 69.1 | 15.3 | 0.2 |  |  |  | 0.6 | 0.1 |  | 1.3 | IC50 ([7]; Table 6): ≥ 1200 nM; IC50 ([8]; Table 6, 72 h): 33 nM; IC50 ([9]; Table 6, 10 ng/ml EGF): 730 nM; IC50 ([12]; Table 6, 72 h): 2760 nM |
